Measured values published in the NIST ThermoML archive (doi:10.1021/je500977g).

Test: mn = molality of the nth substance listed, in mol/kg
Details: Liquid

C[N+](C)(C)[O-] [trimethylamine oxide] + O
mass density [kg/m3]
Details | 278.15 K | 288.15 K | 298.15 K | 308.15 K | 323.15 K
101 kPa, Vibrating tube method, m1 = 0.0875 | 1000.16 | 999.28 | 997.22 | 994.21 | 988.2
101 kPa, Vibrating tube method, m1 = 0.1707 | 1000.36 | 999.46 | 997.4 | 994.38 | 988.37
101 kPa, Vibrating tube method, m1 = 0.2465 | 1000.55 | 999.63 | 997.57 | 994.54 | 988.53
101 kPa, Vibrating tube method, m1 = 0.3259 | 1000.75 | 999.82 | 997.74 | 994.71 | 988.7
101 kPa, Vibrating tube method, m1 = 0.4018 | 1000.95 | 1000 | 997.91 | 994.88 | 988.86
101 kPa, Vibrating tube method, m1 = 0.5862 | 1001.48 | 1000.47 | 998.35 | 995.31 | 989.27
101 kPa, Vibrating tube method, m1 = 0.7963 | 1002.11 | 1001.02 | 998.86 | 995.8 | 989.75
101 kPa, Vibrating tube method, m1 = 1.039 | 1002.89 | 1001.71 | 999.49 | 996.41 | 990.34
101 kPa, Vibrating tube method, m1 = 1.373 | 1004.01 | 1002.7 | 1000.4 | 997.27 | 991.15
101 kPa, Vibrating tube method, m1 = 1.923 | 1006.05 | 1004.48 | 1002.01 | 998.77 | 992.62
101 kPa, Vibrating tube method, m1 = 3.259 | 1011.69 | 1009.4 | 1006.44 | 1002.83 | 996.37
101 kPa, Vibrating tube method, m1 = 4.325 | 1016.41 | 1013.58 | 1010.2 | 1006.27 | 999.45
10000 kPa, Constant-volume piezometry, m1 = 0.1707 | 1005.1 | 1003.98 | 1001.77 | 998.64 | 992.59
10000 kPa, Constant-volume piezometry, m1 = 0.3259 | 1005.43 | 1004.27 | 1002.05 | 998.93 | 992.87
10000 kPa, Constant-volume piezometry, m1 = 0.5862 | 1006.05 | 1004.81 | 1002.57 | 999.44 | 993.35
10000 kPa, Constant-volume piezometry, m1 = 1.039 | 1007.25 | 1005.85 | 1003.56 | 1000.4 | 994.29
10000 kPa, Constant-volume piezometry, m1 = 1.373 | 1008.19 | 1006.74 | 1004.38 | 1001.17 | 995.02
10000 kPa, Constant-volume piezometry, m1 = 1.923 | 1009.95 | 1008.34 | 1005.83 | 1002.54 | 996.38
10000 kPa, Constant-volume piezometry, m1 = 3.259 | 1015.17 | 1012.89 | 1009.93 | 1006.31 | 999.89
10000 kPa, Constant-volume piezometry, m1 = 4.325 | 1019.59 | 1016.87 | 1013.44 | 1009.52 | 1002.81
25000 kPa, Constant-volume piezometry, m1 = 0.1707 | 1012.1 | 1010.63 | 1008.19 | 1004.94 | 998.81
25000 kPa, Constant-volume piezometry, m1 = 0.3259 | 1012.31 | 1010.83 | 1008.39 | 1005.15 | 999.01
25000 kPa, Constant-volume piezometry, m1 = 0.5862 | 1012.75 | 1011.2 | 1008.79 | 1005.53 | 999.37
25000 kPa, Constant-volume piezometry, m1 = 1.039 | 1013.68 | 1012.01 | 1009.58 | 1006.27 | 1000.14
25000 kPa, Constant-volume piezometry, m1 = 1.373 | 1014.44 | 1012.71 | 1010.25 | 1006.92 | 1000.75
25000 kPa, Constant-volume piezometry, m1 = 1.923 | 1015.88 | 1014.05 | 1011.48 | 1008.08 | 1001.93
25000 kPa, Constant-volume piezometry, m1 = 3.259 | 1020.33 | 1018.05 | 1015.13 | 1011.45 | 1005.1
25000 kPa, Constant-volume piezometry, m1 = 4.325 | 1024.4 | 1021.69 | 1018.32 | 1014.35 | 1007.83
50000 kPa, Constant-volume piezometry, m1 = 0.1707 | 1023.24 | 1021.25 | 1018.48 | 1015.02 | 1008.75
50000 kPa, Constant-volume piezometry, m1 = 0.3259 | 1023.31 | 1021.31 | 1018.55 | 1015.1 | 1008.83
50000 kPa, Constant-volume piezometry, m1 = 0.5862 | 1023.5 | 1021.47 | 1018.73 | 1015.28 | 1009.01
50000 kPa, Constant-volume piezometry, m1 = 1.039 | 1023.97 | 1021.88 | 1019.17 | 1015.72 | 1009.49
50000 kPa, Constant-volume piezometry, m1 = 1.373 | 1024.42 | 1022.31 | 1019.6 | 1016.14 | 1009.9
50000 kPa, Constant-volume piezometry, m1 = 1.923 | 1025.37 | 1023.22 | 1020.48 | 1016.98 | 1010.79
50000 kPa, Constant-volume piezometry, m1 = 3.259 | 1028.7 | 1026.33 | 1023.44 | 1019.69 | 1013.38
50000 kPa, Constant-volume piezometry, m1 = 4.325 | 1032.12 | 1029.39 | 1026.18 | 1022.07 | 1015.77
75000 kPa, Constant-volume piezometry, m1 = 0.1707 | 1033.79 | 1031.35 | 1028.27 | 1024.62 | 1018.2
75000 kPa, Constant-volume piezometry, m1 = 0.3259 | 1033.7 | 1031.27 | 1028.22 | 1024.58 | 1018.18
75000 kPa, Constant-volume piezometry, m1 = 0.5862 | 1033.63 | 1031.21 | 1028.19 | 1024.56 | 1018.19
75000 kPa, Constant-volume piezometry, m1 = 1.039 | 1033.68 | 1031.28 | 1028.3 | 1024.68 | 1018.41
75000 kPa, Constant-volume piezometry, m1 = 1.373 | 1033.85 | 1031.46 | 1028.51 | 1024.9 | 1018.64
75000 kPa, Constant-volume piezometry, m1 = 1.923 | 1034.37 | 1031.97 | 1029.06 | 1025.43 | 1019.23
75000 kPa, Constant-volume piezometry, m1 = 3.259 | 1036.77 | 1034.24 | 1031.32 | 1027.51 | 1021.32
75000 kPa, Constant-volume piezometry, m1 = 4.325 | 1039.49 | 1036.73 | 1033.57 | 1029.5 | 1023.38
100000 kPa, Constant-volume piezometry, m1 = 0.1707 | 1043.78 | 1040.95 | 1037.61 | 1033.77 | 1027.22
100000 kPa, Constant-volume piezometry, m1 = 0.3259 | 1043.57 | 1040.74 | 1037.41 | 1033.59 | 1027.09
100000 kPa, Constant-volume piezometry, m1 = 0.5862 | 1043.26 | 1040.48 | 1037.18 | 1033.39 | 1026.94
100000 kPa, Constant-volume piezometry, m1 = 1.039 | 1042.96 | 1040.22 | 1036.99 | 1033.25 | 1026.92
100000 kPa, Constant-volume piezometry, m1 = 1.373 | 1042.87 | 1040.16 | 1036.98 | 1033.26 | 1027
100000 kPa, Constant-volume piezometry, m1 = 1.923 | 1043.01 | 1040.3 | 1037.22 | 1033.48 | 1027.3
100000 kPa, Constant-volume piezometry, m1 = 3.259 | 1044.64 | 1041.8 | 1038.74 | 1034.99 | 1028.88
100000 kPa, Constant-volume piezometry, m1 = 4.325 | 1046.85 | 1043.78 | 1040.54 | 1036.64 | 1030.78
